According to ChEMBL document CHEMBL3421591, “Improved Synthesis of Biotinol-5'-AMP: Implications for Antibacterial Discovery” (ACS Med Chem Lett, 2015):
Values after ≈ are worked out from the molar mass of the structure shown. Active and inactive are the calls of the source. The calls are words filed in the database; no cut-off is given here.

Legend:
Type in all cases: functional
[1] = tested on: Mycobacterium tuberculosis; assay: Antimicrobial activity against pyrazinamide-resistant Mycobacterium tuberculosis BCG(SI) after 16 to 20 hrs by two-fold microdilution broth method
[2] = tested on: Mycobacterium tuberculosis; assay: Antimicrobial activity against rifampicin-resistant Mycobacterium tuberculosis Who-185 after 16 to 20 hrs by two-fold microdilution broth method
[3] = tested on: Mycobacterium tuberculosis; assay: Antimicrobial activity against isoniazid-resistant Mycobacterium tuberculosis Who-185 after 16 to 20 hrs by two-fold microdilution broth method

Nc1ncnc2c1ncn2[C@@H]1O[C@H](CNS(=O)(=O)NC(=O)CCCC[C@@H]2SC[C@@H]3NC(=O)N[C@@H]32)[C@@H](O)[C@H]1O showed an MIC [1] of 0.1 µg/mL (≈ 0.175 µM), an MIC [2] of 0.1 µg/mL (≈ 0.175 µM) and an MIC [3] of 0.1 µg/mL (≈ 0.175 µM).

With Nc1ncnc2c1ncn2[C@@H]1O[C@H](COP(=O)(O)OCCCCC[C@@H]2SC[C@@H]3NC(=O)N[C@@H]32)[C@@H](O)[C@H]1O the MIC [1] was “inactive”, the MIC [2] was 2.5 µg/mL (≈ 4.47 µM) and the MIC [3] was 0.5 µg/mL (≈ 0.894 µM).
